These results are taken from patent publication US20260234144A1 (TAY THERAPEUTICS LIMITED, priority 2023, published 2026).

In this test the test system is R223X stop codon in the mutated luciferase gene, ADXC8 luciferase reporter cell line. Kind of test: cells. It counts as cell-based. Particulars: ADXC8 cells, 24 hours; for Emax / EC (100% of 200 uM G418 response): 24 h; for Emax: read-out: Fold Over Control, maximum fold response relative to 200 μM G418; for EC (100% of 200 uM G418 response): read-out: pC100%, negative logarithm of the concentration giving the same response as 200 μM G418.

On to `Cc1cc(C)c2c(N)nc(NCC3CN(C(=O)OC(C)(C)C)C3)nc2n1` [Example 139], for which the Emax fell in the range of 100 to 3000% and the EC (100% of 200 uM G418 response) lay in the range of 10 to 100 µM.

For `Cc1cc(C)c2c(N)nc(N[C@H]3CCCNC3)nc2n1` [Example 352], the Emax was in the range of 100 to 3000% and the EC (100% of 200 uM G418 response) fell in the range of 10 to 100 µM.

Take `Cc1cc(C)c2c(N)nc(NC3CCN(Cc4cccc5cn[nH]c45)CC3)nc2n1` [Example 659]: the Emax is 100 to 3000% and the EC (100% of 200 uM G418 response) lay within 0.1 to 1 µM.

For the compound `Cc1cc(C)c2c(N)nc(NCCN3CC(F)(F)C3)nc2n1` [Example 169], the Emax lay within 0 to 100% and the EC (100% of 200 uM G418 response) is greater than 31.6 µM.

Consider `Cc1c2c(nc3nc(NC4CCN(Cc5ccccc5NS(C)(=O)=O)CC4)nc(N)c13)CCC2` [Example 671], for which the Emax was in the range of 100 to 3000% and the EC (100% of 200 uM G418 response) was in the range of 1 to 10 µM.

With `CNc1nc(N[C@H]2CNC[C@H]2OC)nc2nc(C)cc(C)c12` [Example 370], the Emax lay in the range of 100 to 3000% and the EC (100% of 200 uM G418 response) lay within 1 to 10 µM.

On to `COc1ccccc1-c1ccc2c(N)nc(NC3CCN(C)CC3)nc2n1` [Example 50], for which the EC (100% of 200 uM G418 response) fell in the range of 1 to 10 µM.

Regarding `Cc1cc(C)c2c(N)nc(NC3CCCCN(C(=O)OC(C)(C)C)C3)nc2n1` (stereo not shown) [Example 135], the Emax fell in the range of 0 to 100% and the EC (100% of 200 uM G418 response) was greater than 100 µM.

`CNc1cc(N[C@@H]2CCNC2)nc2nc(C)cc(C)c12` [Example 256, (R)—N^4,5,7-trimethyl-N^2-(pyrrolidin-3-yl)-1,8-naphthyridine-2,4-diamine]: the EC (100% of 200 uM G418 response) was in the range of 0.1 to 1 µM.

For the compound `CNc1nc(N[C@H]2C[C@H](C)N(C)C2)nc2nc(C)cc(C)c12` [Example 373], the Emax was in the range of 100 to 3000% and the EC (100% of 200 uM G418 response) was in the range of 1 to 10 µM.

In the case of `CCCN1CCC(Nc2nc(N)c3c(C)cc(C)nc3n2)CC1` [Example 221], the EC (100% of 200 uM G418 response) is 1 to 10 µM.

As to `CNc1nc(N[C@@H]2CCNC2)nc2nc(C)cc(C)c12` [Example 294], the EC (100% of 200 uM G418 response) is 0.1 to 1 µM.

In the case of `Cc1cc(C)c2c(N(C)C3CC3)nc(NC3CCN(C)CC3)nc2n1` [Example 265], the Emax was 0 to 100% and the EC (100% of 200 uM G418 response) is greater than 100 µM.

In the case of `CNc1nc(N[C@@H]2CCCN(C)C2)nc2nc(C)cc(C)c12` [Example 385], the EC (100% of 200 uM G418 response) was in the range of 0.1 to 1 µM.

In the case of `CNc1nc(N[C@@H]2CN(C)C[C@@H]2C)nc2nc(C)cc(C)c12` [Example 377], the Emax is 100 to 3000% and the EC (100% of 200 uM G418 response) lay in the range of 1 to 10 µM.

`CN1CCC(Nc2nc(N)c3ccc(Cl)nc3n2)CC1` [Example 23, 7-chloro-N^2-(1-methylpiperidin-4-yl)pyrido[2,3-d]pyrimidine-2,4-diamine]: the Emax is 100 to 3000% and the EC (100% of 200 uM G418 response) lay in the range of 10 to 100 µM.

Consider `COCCN1CCC(Nc2nc(N)c3c(C)cc(C)nc3n2)CC1` [Example 172], for which the Emax lay within 100 to 3000% and the EC (100% of 200 uM G418 response) fell in the range of 10 to 100 µM.

As to `CN1CCC(Nc2nc(N)c3ccc(-c4ccccc4C(=O)N(C)C)nc3n2)CC1` [Example 75], the Emax was 0 to 100% and the EC (100% of 200 uM G418 response) was greater than 100 µM.

Consider `Cc1cc(C)c2c(NCCO)nc(NC3CCN(C)CC3)nc2n1` [Example 273], for which the EC (100% of 200 uM G418 response) lay in the range of 1 to 10 µM.

With `CNc1nc(N[C@H]2CN(C)C[C@@H]2O)nc2nc(C)c(Cl)c(C)c12` [Example 629], the EC (100% of 200 uM G418 response) is 1 to 10 µM.

In the case of `CN1CCC(Nc2nc(N)c3ccc(-c4cccc(C(N)=O)c4)nc3n2)CC1` [Example 70], the Emax fell in the range of 100 to 3000% and the EC (100% of 200 uM G418 response) lay in the range of 10 to 100 µM.

As for `Cc1cc(C)c2c(N)nc(NC3CC34CCNCC4)nc2n1` (stereo not shown) [Example 640], the Emax lay within 0 to 100% and the EC (100% of 200 uM G418 response) was greater than 31.6 µM.

As to `Cc1cc(C)c2c(N)nc(NC3CCN(Cc4ncco4)CC3)nc2n1` [Example 473], the Emax was 100 to 3000% and the EC (100% of 200 uM G418 response) lay within 10 to 100 µM.

For the compound `COC(=O)c1cnc2nc(NC3CCN(C)CC3)nc(N)c2c1` [Example 122, methyl 4-amino-2-[(1-methylpiperidin-4-yl)amino]pyrido[2,3-d]pyrimidine-6-carboxylate], the Emax lay within 0 to 100% and the EC (100% of 200 uM G418 response) is greater than 100 µM.

Regarding `CN1CCC(Nc2nc(N)c3ccc(-c4ccncc4)nc3n2)CC1` [Example 111], the EC (100% of 200 uM G418 response) fell in the range of 10 to 100 µM.

`CNc1nc(N[C@@H]2CCCNCC2)nc2nc(C)cc(C)c12` [Example 402]: the EC (100% of 200 uM G418 response) lay within 1 to 10 µM.

Regarding `Cc1c2c(nc3nc(NC4CCNCC4)nc(NCCO)c13)CCC2` [Example 510, 2-((5-methyl-2-(piperidin-4-ylamino)-7,8-dihydro-6H-cyclopenta[5,6]pyrido[2,3-d]pyrimidin-4-yl)amino)ethan-1-ol], the Emax was in the range of 100 to 3000% and the EC (100% of 200 uM G418 response) is 0.1 to 1 µM.

As for `Cc1cc(C)c2c(N)nc(NCCNCC(F)F)nc2n1` [Example 168], the Emax fell in the range of 100 to 3000% and the EC (100% of 200 uM G418 response) lay in the range of 10 to 100 µM.

As for `Cc1cc(C)c2c(N)nc(NC3CCN(Cc4ccno4)CC3)nc2n1` [Example 501], the Emax fell in the range of 100 to 3000% and the EC (100% of 200 uM G418 response) lay within 10 to 100 µM.

In the case of `Cc1cccc(-c2cc(C)c3c(N)nc(NCCCN4CCOCC4)nc3n2)c1` [Example 253, 5-methyl-N2-(3-morpholinopropyl)-7-(m-tolyl)pyrido[2,3-d]pyrimidine-2,4-diamine], the EC (100% of 200 uM G418 response) was in the range of 1 to 10 µM.

Turning to `Nc1nc(NCCCN2CCOCC2)nc2nc(-c3ccccc3)c3c(c12)CCC3` [Example 129, N^3-(3-morpholinopropyl)-6-phenyl-8,9-dihydro-7H-cyclopenta[4,5]pyrido[2,3-d]pyrimidine-1,3-diamine], the EC (100% of 200 uM G418 response) fell in the range of 1 to 10 µM.

`CCNc1nc(N[C@H]2CN(C)C[C@H]2F)nc2nc(C)cc(C)c12` [Example 395]: the EC (100% of 200 uM G418 response) was in the range of 1 to 10 µM.

Regarding `CNc1cc(N[C@H]2CN(C)C[C@@H]2F)nc2nc3c(c(C)c12)CCC3` [Example 634], the Emax was 100 to 3000% and the EC (100% of 200 uM G418 response) was 0.1 to 1 µM.

In the case of `Cc1cc(C)c2c(N)nc(NC3C4CNC[C@@H]43)nc2n1` (stereo partly shown) [Example 203], the Emax lay within 100 to 3000% and the EC (100% of 200 uM G418 response) is 1 to 10 µM.

In the case of `Cc1cc(C)c2c(N)nc(NC3CCN(Cc4ccc(C#N)cc4C(F)F)CC3)nc2n1` [Example 508, 4-((4-((4-amino-5,7-dimethylpyrido[2,3-d]pyrimidin-2-yl)amino)piperidin-1-yl)methyl)-3-(difluoromethyl)benzonitrile], the Emax was in the range of 100 to 3000% and the EC (100% of 200 uM G418 response) is 1 to 10 µM.

In the case of `Cc1cc(C)c2c(N)nc(NC3CCN(Cc4ccc(F)cc4)CC3)nc2n1` [Example 457], the Emax lay within 100 to 3000% and the EC (100% of 200 uM G418 response) was in the range of 0.1 to 1 µM.

In the case of `CNc1nc(NC2C[C@@H]3CCC2N3)nc2nc(C)cc(C)c12` (stereo partly shown) [Example 383], the EC (100% of 200 uM G418 response) was in the range of 1 to 10 µM.

Take `Cc1cc(C)c2c(N)nc(NC3CCN(C(C)c4ccccc4)CC3)nc2n1` (single isomer, unassigned) [Example 502]: the Emax is 100 to 3000% and the EC (100% of 200 uM G418 response) lay in the range of 0.1 to 1 µM.

Take `Cc1cc(C)c2c(N)nc(NC3CNC3)nc2n1` [Example 214]: the Emax is 0 to 100% and the EC (100% of 200 uM G418 response) was greater than 31.6 µM.

Consider `CNc1nc(N[C@H]2CN(C)C[C@@H]2OC(C)=O)nc2nc3c(c(C)c12)CCC3` [Example 683, (3S,4S)-1-methyl-4-((5-methyl-4-(methylamino)-7,8-dihydro-6H-cyclopenta[5,6]pyrido[2,3-d]pyrimidin-2-yl)amino)pyrrolidin-3-yl acetate], for which the Emax fell in the range of 100 to 3000% and the EC (100% of 200 uM G418 response) is 0.1 to 1 µM.

With `CN1CCC(Nc2nc(N)c3ccc(-c4cnn(C)c4)nc3n2)CC1` [Example 26, 7-(1-methyl-1H-pyrazol-4-yl)-N^2-(1-methylpiperidin-4-yl)pyrido[2,3-d]pyrimidine-2,4-diamine], the Emax was 0 to 100% and the EC (100% of 200 uM G418 response) was greater than 100 µM.

For `Cc1cc(C)c2c(N)nc(N[C@@H]3CNC[C@H]3O)nc2n1` [Example 302], the Emax was 100 to 3000% and the EC (100% of 200 uM G418 response) lay within 1 to 10 µM.

With `Cc1cc(C)c2c(N)nc(NC3CCCNCC3)nc2n1` (stereo not shown) [Example 140, A2-(azepan-4-yl)-5,7-dimethylpyrido[2,3-d]pyrimidine-2,4-diamine], the Emax fell in the range of 100 to 3000% and the EC (100% of 200 uM G418 response) fell in the range of 1 to 10 µM.

For `CN1CCC(Nc2nc(N)c3ccc(-c4ccccc4C(F)(F)F)nc3n2)CC1` [Example 90], the Emax lay in the range of 100 to 3000% and the EC (100% of 200 uM G418 response) is 10 to 100 µM.

In the case of `Cc1ccc(-c2ccc3c(N)nc(NC4CCN(C)CC4)nc3n2)cc1` [Example 101], the EC (100% of 200 uM G418 response) fell in the range of 1 to 10 µM.

For `CNc1nc(N[C@H]2CN(Cc3ccccc3)C[C@@H]2O)nc2nc(C)cc(C)c12` [Example 622], the Emax was 100 to 3000% and the EC (100% of 200 uM G418 response) was 1 to 10 µM.

Take `CN1CCC(Nc2nc(N)c3ccc(-c4cccc(C(=O)O)c4)nc3n2)CC1` [Example 83]: the Emax lay within 0 to 100% and the EC (100% of 200 uM G418 response) is greater than 100 µM.

In the case of `Cc1c2c(nc3nc(NC4CCN(Cc5ccc(C#N)cc5F)CC4)nc(N)c13)CCC2` [Example 649], the Emax lay within 100 to 3000% and the EC (100% of 200 uM G418 response) was 1 to 10 µM.

As to `Cc1cc(C)c2c(NCC(N)=O)nc(NC3CCN(C)CC3)nc2n1` [Example 314], the Emax was 0 to 100% and the EC (100% of 200 uM G418 response) is greater than 31.6 µM.

As for `Cc1cc(C)c2c(N)nc(NC34CNCC3C4)nc2n1` (single isomer, unassigned) [Example 260, N^2-(3-azabicyclo[3.1.0]hexan-1-yl)-5,7-dimethylpyrido[2,3-d]pyrimidine-2,4-diamine], under “maximum fold response relative to 200 μM G418”, the “Fold Over Control” value is “## (Fold over Ctrl > 1 ≤ 30)”. Besides, for the setting “negative logarithm of the concentration giving the same response as 200 μM G418”, the pC100% entry was “+++ (pC100% > 6.0 ≤ 7.0)”.

In the case of `Cc1cc(C)c2c(N)nc(NC3CCN(Cc4cccc(F)c4)CC3)nc2n1` [Example 466], the Emax lay within 100 to 3000% and the EC (100% of 200 uM G418 response) fell in the range of 1 to 10 µM.
